Experimental data: patent US11345666B2, “Phenyl and pyridinyl substituted imidazoles as modulators of RORγT” (Janssen Pharmaceutica NV, priority 2018, dated 2022)
Marks after values point to notes of the source that are not given here.

Tests used:
full-length human RORγt = full-length human RORγt (Homo sapiens (Human), UniProt P51449); assay: RORγt (full-length human) reporter assay, conditions A or B; assay type: cell-based; settings: for IC50: HEK293T cells, read-out: RORγt (FL) Reporter Assay A or B, IC50; for inhibition at 2 µM: 2 μM compound concentration (**), read-out: RORγt (FL) Reporter Assay A or B, % inhibition; for inhibition at 3 µM: read-out: RORγt (FL) Reporter Assay A or B, % inhibition, 3 μM compound concentration (*)
Text: RORγt (Full-Length Human) Reporter Assay:
Cells used in this assay were transiently co-transfected with three different plasmids, one expressing the GAL4-DNA binding domain (DBD)-RORγt fusion protein under control of a CMV promoter (NH2-Gal4-DBD:RORC—COOH in pCMV-BD, Stratagene #211342), and two reporter plasmids—the firefly luciferase reporter under control of a GAL4 promoter (pFR-Luc 2×GAL4) and Renilla luciferase reporter under control of CMV promoter (pRL-CMV, Promega #E2261). […] HEK293T cells were plated at 35,000 per well in 96-well plate in medium of DMEM with 10% FBS. After 18-22 hours incubation, the transfection was carried out by using a PEI solution with 170.5 ng total DNA/well (50 ng pCMV-BD-ROR plus 20 ng of pFR-Luc reporter and 0.5 ng of pRL-CMV reporter plus 100 ng Carrier DNA (Clontech #630440) for each well). 4-6 hours after transfection, cells were treated with compounds for overnight in the medium with final concentration of FBS 1.3% and DMSO 0.1%. After overnight (16 to 20 hours) incubation, media were removed and cells were lysed with […] Glo Lysis Buffer (Promega) for 10-15 minutes followed by 10 minute incubation with 50 μL Dual Glo reagent (Promega) at room temperature. Firefly luciferase luminescence was measured using a BMG Pherastar plate reader. To each well, 50 μL Stop and Glo reagent was added and incubated for 10 minutes at room temperature. Renilla luminescence was measured using a BMG Pherastar plate reader. To calculate the effect of compounds on RORγt activity, firefly values were normalized against values of DMSO only and values of reference compound at saturating concentration, then further normalized against Renilla signals. IC50s were generated by plotting final Renilla normalized data against compound concentration and percent inhibition was calculated against DMSO control.
Cells used in this assay were transiently co-transfected with three different plasmids, one expressing the GAL4-DNA binding domain (DBD)-RORγt fusion protein under control of a CMV promoter (NH2-Gal4-DBD:RORC—COOH in pCMV-BD, Stratagene #211342), and two reporter plasmids—the firefly luciferase reporter under control of a GAL4 promoter (pFR-Luc 2×GAL4) and Renilla luciferase reporter under control of CMV promoter (pRL-CMV, Promega #E2261). […] HEK293T cells were plated at 8750 cells per well in 384-well plate in medium of DMEM with 10% FBS. After 18-22 hours incubation, the transfection was carried out by using a PEI solution with 42.6 ng total DNA/well (12.5 ng pCMV-BD-ROR plus 5 ng of pFR-Luc reporter and 0.125 ng of pRL-CMV reporter plus 25 ng Carrier DNA (Clontech #630440) for each well). 4-6 hours after transfection, cells were treated with compounds for overnight in the medium with final concentration of FBS 1.3% and DMSO 0.1%. After overnight (16 to 20 hours) incubation, media were removed and cells were lysed with 20 μL Glo Lysis Buffer (Promega) for 10-15 minutes followed by 10 minute incubation with 20 μL Dual Glo reagent (Promega) at room temperature. Firefly luciferase luminescence was measured using a BMG Pherastar plate reader. To each well, 20 μL Stop and Glo reagent was added and incubated for 10 minutes at room temperature. Renilla luminescence was measured using a BMG Pherastar plate reader. To calculate the effect of compounds on RORγt activity, firefly values were normalized against values of DMSO only and values of reference compound at saturating concentration, then further normalized against Renilla signals. IC50s were generated by plotting final Renilla normalized data against compound concentration and percent inhibition was calculated against DMSO control.

[1] = biological target: human RORγt ligand binding domain (RORγt LBD) (Homo sapiens (Human), UniProt P51449); assay: RORγt ThermoFluor assay
Text: ThermoFluor® is a fluorescence based assay that estimates ligand binding affinities by measuring the effect of a ligand on protein thermal stability (Pantoliano, M. W., Petrella, E. C., Kwasnoski, J. D., Lobanov, V. S., Myslik, J., Graf, E., Carver, T., Asel, E., Springer, B. A., Lane, P., and Salemme, F. R. (2001) High-density miniaturized thermal shift assays as a general strategy for drug discovery. J Biomol Screen 6, 429-40, and Matulis, D., Kranz, J. K., Salemme, F. R., and Todd, M. J. (2005) Thermodynamic stability of carbonic anhydrase: measurements of binding affinity and stoichiometry using ThermoFluor. Biochemistry 44, 5258-66). This approach is applicable to a wide variety of systems, and rigorous in theoretical interpretation through quantitation of equilibrium binding constants (KD).
The shift in the melting point described as a ΔTm is proportional to the concentration and affinity of the ligand.
RORγt ThermoFluor® Assay Construct
Nucleotides 850-1635 (SEQ ID NO:2) coding for the wild type human RORγt ligand binding domain (RORγt LBD) were cloned into the pHIS 1 vector, a modified pET E. coli expression vector (Accelagen, San Diego), containing an in-frame N-terminal His-tag and a TurboTEV protease cleavage site (ENLYFQG, SEQ ID NO:3) upstream of the cloned insert sequence. The amino acid sequence for the RORγt construct used in the Thermofluor® assay is shown as SEQ ID NO:4.
ThermoFluor® experiments were carried out using instruments owned by Janssen Research and Development, L.L.C. through its acquisition of 3-Dimensional Pharmaceuticals, Inc. 1,8-ANS (Invitrogen) was used as a fluorescent dye. Protein and compound solutions are dispensed into black 384-well polypropylene PCR microplates (Abgene) and overlayed with silicone oil (1 μL, Fluka, type DC 200) to prevent evaporation.
Bar-coded assay plates are robotically loaded onto a thermostatically controlled PCR-type thermal block and then heated at a typical ramp-rate of 1° C./min for all experiments. Fluorescence was measured by continuous illumination with UV light (Hamamatsu LC6) supplied via fiber optic and filtered through a band-pass filter (380-400 nm; >6 OD cutoff). Fluorescence emission of the entire 384-well plate was detected by measuring light intensity using a CCD camera (Sensys, Roper Scientific) filtered to detect 500±25 nm, resulting in simultaneous and independent readings of all 384 wells. Images were collected at each temperature, and the sum of the pixel intensity in a given area of the assay plate was recorded versus temperature. Reference wells contained RORγt without compounds, and the assay conditions were as follows: • 0.065 mg/mL RORγt • 60 μM 1,8-ANS • 100 mM Hepes, pH 7.0 • 10 mM NaCl • 2.5 mM GSH • 0.002% Tween-20
Project compounds were arranged in a pre-dosed mother plate (Greiner Bio-one) wherein compounds are serially diluted in 100% DMSO by 1:2 from a high concentration of 10 mM over 12 columns within a series (column 12 is a reference well containing DMSO, no compound). The compounds were robotically dispensed directly into assay plates (1×=46 nL) using a Hummingbird capillary liquid handling instrument (Digilab). Following compound dispense, protein and dye in buffer was added to achieve the final assay volume of 3 μL, followed by 1 μL of silicone oil.
The binding affinity was estimated as described previously (Matulis, D., Kranz, J. K., Salemme, F. R., and Todd, M. J. (2005) Thermodynamic stability of carbonic anhydrase: measurements of binding affinity and stoichiometry using ThermoFluor®. Biochemistry 44, 5258-66) using the following thermodynamic parameters of protein unfolding: […]

Chain of human RORγt ligand binding domain (RORγt LBD) (P51449 other isoform, or with tags, fused parts or gaps): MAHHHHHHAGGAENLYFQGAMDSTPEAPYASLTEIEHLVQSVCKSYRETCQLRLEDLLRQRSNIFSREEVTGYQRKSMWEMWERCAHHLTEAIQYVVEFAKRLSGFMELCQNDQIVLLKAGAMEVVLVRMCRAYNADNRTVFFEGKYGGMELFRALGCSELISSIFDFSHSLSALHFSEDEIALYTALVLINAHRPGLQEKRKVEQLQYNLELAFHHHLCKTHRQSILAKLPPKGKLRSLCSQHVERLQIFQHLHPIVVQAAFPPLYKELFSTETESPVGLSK
Chain of full-length human RORγt (P51449 other isoform, or with tags, fused parts or gaps): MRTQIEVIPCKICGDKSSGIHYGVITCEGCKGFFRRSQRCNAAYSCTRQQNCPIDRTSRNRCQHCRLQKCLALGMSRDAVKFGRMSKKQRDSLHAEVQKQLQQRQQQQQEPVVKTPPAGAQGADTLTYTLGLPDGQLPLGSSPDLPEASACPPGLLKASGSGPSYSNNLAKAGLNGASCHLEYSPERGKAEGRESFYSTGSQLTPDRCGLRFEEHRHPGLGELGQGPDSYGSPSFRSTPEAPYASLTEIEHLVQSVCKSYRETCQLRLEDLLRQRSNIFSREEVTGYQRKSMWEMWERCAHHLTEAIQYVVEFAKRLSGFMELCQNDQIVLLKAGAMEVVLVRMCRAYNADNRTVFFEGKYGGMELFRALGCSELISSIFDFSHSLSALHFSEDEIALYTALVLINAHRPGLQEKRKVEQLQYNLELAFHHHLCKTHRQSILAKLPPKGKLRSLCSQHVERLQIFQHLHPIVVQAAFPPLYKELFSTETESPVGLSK

| inhibition at 2 µM (full-length human RORγt) | SMILES | RORγt (FL) Reporter Assay A or B, % inhibition (full-length human RORγt; 0.67 μM compound concentration (****)) | IC50 (full-length human RORγt) | Kd [1] | inhibition at 3 µM (full-length human RORγt) |
| --- | --- | --- | --- | --- | --- |
| – | CCc1nc(C(=O)NC[C@H]2CC[C@H](S(C)(=O)=O)CC2)c(Cl)n1-c1ccc(CC(C)C(F)(F)F)cc1OC (single isomer, unassigned) [Example 5, 5-Chloro-2-ethyl-1-((1R*)-2-methoxy-4-(3,3,3-trifluoro-2-methylpropyl)phenyl)-N-(((1r,4R)-4-(methylsulfonyl)cyclohexyl)methyl)-1H-imidazole-4-carboxamide] | 43**** % | 0.26 µM | 1.3 µM | – |
| 74% | CCc1nc(C(=O)NC[C@]2(O)CC[C@@H](S(C)(=O)=O)CC2)cn1-c1ccc(C[C@@H](C)C(F)(F)F)cc1OC (single isomer, unassigned) [Example 17, 2-Ethyl-N-(((1s,4S)-1-hydroxy-4-(methylsulfonyl)cyclohexyl)methyl)-1-(2-methoxy-4-((R*)-3,3,3-trifluoro-2-methylpropyl)phenyl)-1H-imidazole-4-carboxamide] | – | 0.4 µM | 0.075 µM | – |
| 93% | CCc1nc(C(=O)NC[C@H]2CC[C@H](S(C)(=O)=O)CC2)cn1-c1ccc(C[C@@H](C)C(F)(F)F)cc1OC (single isomer, unassigned) [Example 18, 2-Ethyl-1-(2-methoxy-4-((R*)-3,3,3-trifluoro-2-methylpropyl)phenyl)-N-(((1r,4R)-4-(methylsulfonyl)cyclohexyl)methyl)-1H-imidazole-4-carboxamide] | – | 0.23 µM | 0.028 µM | – |
| 80% | CCc1nc(C(=O)NC[C@]2(O)CC[C@@H](S(C)(=O)=O)CC2)cn1-c1ccc(C[C@H](C)C(F)(F)F)cc1OC (single isomer, unassigned) [Example 19, 2-Ethyl-N-(((1s,4R)-1-hydroxy-4-(methylsulfonyl)cyclohexyl)methyl)-1-(2-methoxy-4-((S*)-3,3,3-trifluoro-2-methylpropyl)phenyl)-1H-imidazole-4-carboxamide] | – | 0.36 µM | 0.05 µM | – |
| 94% | CCc1nc(C(=O)NC[C@H]2CC[C@H](S(C)(=O)=O)CC2)cn1-c1ccc(C[C@H](C)C(F)(F)F)cc1OC (single isomer, unassigned) [Example 20, 2-Ethyl-1-(2-methoxy-4-((S*)-3,3,3-trifluoro-2-methylpropyl)phenyl)-N-(((1r,4S)-4-(methylsulfonyl)cyclohexyl)methyl)-1H-imidazole-4-carboxamide] | – | 0.17 µM | 0.021 µM | – |
| – | Cc1nc(C(=O)NC[C@H]2CC[C@H](S(C)(=O)=O)C[C@@H]2O)c(C#N)n1-c1ccc(CC(C)(C)C(F)(F)F)cc1OC(F)F (single isomer, unassigned) [Example 56, 5-Cyano-1-(2-(difluoromethoxy)-4-(3,3,3-trifluoro-2,2-dimethylpropyl)phenyl)-N-(((1R*,2S*,4S*)-2-hydroxy-4-(methylsulfonyl)cyclohexyl)methyl)-2-methyl-1H-imidazole-4-carboxamide] | – | 0.063 µM | 0.032 µM | 102% |
| – | Cc1nc(C(=O)NC[C@@H]2CC[C@@H](S(C)(=O)=O)C[C@H]2O)c(C#N)n1-c1ccc(CC(C)(C)C(F)(F)F)cc1OC(F)F (single isomer, unassigned) [Example 57, 5-Cyano-1-(2-(difluoromethoxy)-4-(3,3,3-trifluoro-2,2-dimethylpropyl)phenyl)-N-(((1S*,2R*,4R*)-2-hydroxy-4-(methylsulfonyl)cyclohexyl)methyl)-2-methyl-1H-imidazole-4-carboxamide] | – | 0.04 µM | 0.022 µM | 98% |
| – | CCc1nc(C(=O)NC[C@H]2CC[C@H](S(C)(=O)=O)C[C@@H]2O)c(Cl)n1-c1ncc(CC(C)(C)C(F)(F)F)cc1OC(F)F (single isomer, unassigned) [Example 58, 5-Chloro-1-(3-(difluoromethoxy)-5-(3,3,3-trifluoro-2,2-dimethylpropyl)pyridin-2-yl)-2-ethyl-N-(((1R*,2S*,4S*)-2-hydroxy-4-(methylsulfonyl)cyclohexyl)methyl)-1H-imidazole-4-carboxamide] | – | 0.16 µM | 0.012 µM | 121% |
| – | CCc1nc(C(=O)NC[C@@H]2CC[C@@H](S(C)(=O)=O)C[C@H]2O)c(Cl)n1-c1ncc(CC(C)(C)C(F)(F)F)cc1OC(F)F (single isomer, unassigned) [Example 59, 5-Chloro-1-(3-(difluoromethoxy)-5-(3,3,3-trifluoro-2,2-dimethylpropyl)pyridin-2-yl)-2-ethyl-N-(((1S*,2R*,4R*)-2-hydroxy-4-(methylsulfonyl)cyclohexyl)methyl)-1H-imidazole-4-carboxamide] | – | 0.065 µM | 0.012 µM | 104% |
